Data taken from US4786644A, “1-aryl-3-quinolinecarboxamide” (Hoechst-Roussel Pharmaceuticals Inc., priority 1987, dated 1988).

Legend:
[1] = tested on: adjuvant-induced polyarthritis syndrome; assay: adjuvant-induced polyarthritis syndrome in rats; type: in vivo, rat (male Charles River-Wistar Lewis); conditions: rat, p.o., daily for 21 days
Description: This activity was measured by a procedure similar to that described by C. M. Pearson and F. D. Wood, Arthritis and Rheumatism, 2, 440 (1959).
Groups of 10 male Charles River-Wistar Lewis rats weighing 150 to 175 g were individually housed and maintained on a regular rat chow diet. Water was given ad libitum. The adjuvant was prepared by suspending 75 mg of Mycobacterium butyricum (Difco Laboratories, Detroit, Mich.) in 10 ml of white paraffin oil with continuous stirring for 2 hours at room temperature prior to administration. Test compounds are prepared by suspending the drug in water, adding one drop of Tween 80 per 10 ml of suspension, and homogenizing. The adjuvant suspension (0.1 ml) was injected into the footpad of the left hind paw of the rat. Test compound suspensions were adminstered orally (10 ml/kg) the day before adjuvant suspension injection and the administration was continued daily for 21 days. One group of ten rats was used for the test drug. Standard, adjuvant-injected control and non-injected control groups were run along with the test drug. Control animals received vehicle (10 ml/kg). Injected and non-injected paw volumes were determined on the day the adjuvant suspension was given, and on subsequent days thereafter (usually days 5, 10, 18, and 21) by the method of C. A. Winter, et al., Proc. Soc. Exp. Biol. Med., 111, 544 (1962).
The percent inhibition of paw volume (injected and non-injected paw) were calculated by the following formula: [formula] The results of the adjuvant-induced polyarthritis syndrome test procedure for several of the compounds of this invention are provided in Table 2.

[2] = tested on: carrageenan-induced rat paw edema; assay: carrageenan-induced rat paw edema antiinflammatory assay; type: in vivo; conditions: screening dose of 100 mg/kg, p.o.
[3] = tested on: phenyl-p-quinone writhing; assay: phenyl-p-quinone writhing assay in mice (analgesic); type: in vivo, mouse (male, Charles River, CD-1); conditions: for Analgesic Activity, % Inhibition of Writhing: mouse, screening dose of 20 mg/kg, s.c.
Description: The procedure employed to determine analgetic utility is a modification of the phenyl-p-quinone writhing assay in mice, a standard assay for analgetic activity [Proc. Soc. Exptl. […] The solution is administered to the subject mice intraperitoneally at a dose of 10 ml per kg of body weight. A characteristic "writhe", an inward rotation of one or more feet with twisting and turning of the trunk, drawing in of the abdominal wall, lordosis and arching of the back, is produced.
A total of 28 male mice (Charles River, CD-1), weighing 18 to 30 grams, are employed for a time response. The subject animals receive food and water ad libitum. Test compounds are dissolved in distilled water, or suspended in distilled water containing one drop of a suitable surfactant, such as Tween-80.
Four groups of five animals (20 animals) are given the test compound subcutaneously (s.c.) or orally (p.o.) at 15, 30, 45 and 60 minutes prior to administration of the phenyl-p-quinone. A control group (2 animals per group) receive an equal volume of the vehicle. After the administration of the phenyl-p-quinone, the mice are placed separately in one liter beakers, and after five minutes, are observed for ten minutes. The number of writhes for each animal is recorded. The following formula is used to compute the percent inhibition: [formula]
A dose range determination is run in the same manner as the time response except 10 animals per group are tested at the peak time of test drug activity. Fifty animals, 4 test drug groups, and a vehicle control are employed. Animals are dosed and tested in a randomized manner. The time period with the greatest percent of inhibition is considered the peak time.

CC(=O)Oc1ccccc1C(=O)O [Aspirin, reference compound]
percent inhibition of paw volume, Adjuvant-Treated Paw ([1]; screening dose of 50 mg/kg): -22%
percent inhibition of paw volume, Non-Injected Paw ([1]; screening dose of 50 mg/kg): -33%
Inhibition of Carrageenan-Induced Rat Paw Edema, Percent Inhibition [2]: -29%
ED50 ([3]; Mus musculus, sc, read-out: ED50 (dose effecting 50% inhibition of writhing)): 32.8 mg/kg

O=C(Nc1ccccn1)c1nc(-c2ccccc2)c2ccccc2c1O [Example 1, 4-Hydroxy-1-phenyl-N-(2-pyridyl)-3-isoquinolinecarboxamide]
percent inhibition of paw volume, Adjuvant-Treated Paw ([1]; screening dose of 45 mg/kg): +1%
percent inhibition of paw volume, Non-Injected Paw ([1]; screening dose of 45 mg/kg): -17%

O=C(Nc1cccc(Cl)c1)c1nc(-c2ccccc2)c2ccccc2c1O [Example 3, N-(3-Chlorophenyl)-4-hydroxy-1-phenyl-3-isoquinolinecarboxamide]
Analgesic Activity, % Inhibition of Writhing [3]: 51%

O=C(Nc1ccc(Cl)cn1)c1nc(-c2ccccc2)c2ccccc2c1O [Example 4, N-(5-Chloro-2-pyridyl)-4-hydroxy-1-phenyl-3-isoquinolinecarboxamide]
percent inhibition of paw volume, Adjuvant-Treated Paw ([1]; screening dose of 50 mg/kg): -22%
percent inhibition of paw volume, Non-Injected Paw ([1]; screening dose of 50 mg/kg): -38%
Analgesic Activity, % Inhibition of Writhing [3]: 57%

O=C(Nc1ccccc1)C1=C(O)c2ccccc2N(c2ccccc2)C1 [Example 8, 1,2-Dihydro-4-hydroxy-1-phenyl-N-phenyl-3-quinolinecarboxamide]
percent inhibition of paw volume, Adjuvant-Treated Paw ([1]; screening dose of 50 mg/kg): -5%
percent inhibition of paw volume, Non-Injected Paw ([1]; screening dose of 50 mg/kg): -26%
Inhibition of Carrageenan-Induced Rat Paw Edema, Percent Inhibition [2]: -28%

O=C(Nc1cnccn1)C1=C(O)c2ccccc2N(c2ccccc2)C1 [Example 9, 1,2-Dihydro-4-hydroxy-1-phenyl-N-(2-pyrazinyl)-3-quinolinecarboxamide]
Inhibition of Carrageenan-Induced Rat Paw Edema, Percent Inhibition [2]: -24%
Analgesic Activity, % Inhibition of Writhing [3]: 31%

Cc1csc(NC(=O)C2=C(O)c3ccccc3N(c3ccccc3)C2)n1 [Example 10, 1,2-Dihydro-4-hydroxy-N-(4-methyl-2-thiazolyl)-1-phenyl-3-quinolinecarboxamide]
Analgesic Activity, % Inhibition of Writhing [3]: 36%

O=C(Nc1ccc(Br)cn1)C1=C(O)c2ccccc2N(c2ccccc2)C1 [Example 12, N-(5-Bromo-2-pyridyl)-1,2-dihydro-4-hydroxy-1-phenyl-3-quinolinecarboxamide]
percent inhibition of paw volume, Adjuvant-Treated Paw ([1]; screening dose of 50 mg/kg): -2%
percent inhibition of paw volume, Non-Injected Paw ([1]; screening dose of 50 mg/kg): -22%
Analgesic Activity, % Inhibition of Writhing [3]: 39%

O=C(Nc1ccccn1)c1cn(-c2ccccc2)c2ccccc2c1=O [Example 13, 1,4-Dihydro-4-oxo-1-phenyl-N-(2-pyridyl)-3-quinolinecarboxamide]
Inhibition of Carrageenan-Induced Rat Paw Edema, Percent Inhibition [2]: -25%

O=C(Nc1cnccn1)c1cn(-c2ccccc2)c2ccccc2c1=O [Example 17, 1,4-Dihydro-4-oxo-1-phenyl-N-(2-pyrazinyl)-3-quinolinecarboxamide]
percent inhibition of paw volume, Adjuvant-Treated Paw ([1]; screening dose of 50 mg/kg): -7%
percent inhibition of paw volume, Non-Injected Paw ([1]; screening dose of 50 mg/kg): -23%
Inhibition of Carrageenan-Induced Rat Paw Edema, Percent Inhibition [2]: -23%

Cc1csc(NC(=O)c2cn(-c3ccccc3)c3ccccc3c2=O)n1 [Example 18, 1,4-Dihydro-N-(4-methyl-2-thiazolyl)-4-oxo-1-phenyl-3-quinolinecarboxamide]
percent inhibition of paw volume, Adjuvant-Treated Paw ([1]; screening dose of 50 mg/kg): -12%
percent inhibition of paw volume, Non-Injected Paw ([1]; screening dose of 50 mg/kg): -26%
Inhibition of Carrageenan-Induced Rat Paw Edema, Percent Inhibition [2]: -28%

Cc1cccc(NC(=O)c2cn(-c3ccccc3)c3ccccc3c2=O)n1 [Example 19, 1,4-Dihydro-N-(6-methyl-2-pyridyl)-4-oxo-1-phenyl-3-quinolinecarboxamide]
Analgesic Activity, % Inhibition of Writhing [3]: 35%

Cc1ccc(NC(=O)c2cn(-c3ccccc3)c3ccccc3c2=O)nc1 [Example 20, 1,4-Dihydro-N-(5-methyl-2-pyridyl)-4-oxo-1-phenyl-3-quinolinecarboxamide]
Analgesic Activity, % Inhibition of Writhing [3]: 30%
